Test results reported in patent US8481456B2 (priority 2009, dated 2013).
Read-outs that look alike come from different tables or passages of the source.

Key:
[1] = tested on: apple scab (Venturia inaequalis); test: Venturia test (apples)/preventive; conditions: for Efficacy in %, found: Table L2, 10 days after the inoculation
Septoria tritici = Septoria tritici test (wheat)/preventive; format: in vivo; conditions: 21 days after the inoculation
Phytophthora infestans = test: whole plant or invertebrate; format: in vivo; conditions: 3 days after the inoculation; for pest or weed control at 200 ppm: 200 ppm a.i.; for pest or weed control at 50 ppm: 50 ppm a.i.
[2] = tested on: Fusarium nivale (var. majus); test: Fusarium nivale (var. majus)-test (wheat)/preventive; conditions: 5 days after the inoculation
Alternaria solani = test: Alternaria test (tomatoes)/preventive; format: in vivo; conditions: for pest or weed control at 200 ppm / pest or weed control at 100 ppm: read-out: Efficacy in %, found; for pest or weed control at 12.5 ppm: 12.5 ppm a.i.; for pest or weed control at 25 ppm: 25 ppm a.i.
Pyrenophora teres = Pyrenophora teres test (barley)/preventive; format: in vivo; conditions: 8 days after the inoculation
[3] = tested on: Green peach aphid (Myzus persicae); test: Myzus persicae test; format: in vivo; conditions: for mortality at 200 ppm: 200 ppm a.i.; for mortality at 0.8 ppm: 0.8 ppm a.i.
Description: Cabbage leaves (Brassica oleracea) which are heavily infested by the Green peach aphid (Myzus persicae) are treated by being sprayed into the preparation of the active compound of the desired concentration. After the specified period of time, the mortality in % is determined. 100% means that all the aphids have been killed; 0% means that none of the aphids have been killed.

Botrytis cinerea = test: Botrytis test (beans)/preventive; conditions: 2 days after the inoculation
[4] = tested on: larvae of the diamondback moth (Plutella xylostella); test: Plutella xylostella test; format: in vivo; conditions: for mortality at 200 ppm: 200 ppm a.i.
Description: (§1) Cabbage leaves (Brassica oleracea) are treated by being sprayed into the preparation of the active compound of the desired concentration and are infested with larvae of the diamondback moth (Plutella xylostella) as long as the leaves are still moist. After the specified period of time, the mortality in % is determined. 100% means that all the caterpillars have been killed; 0% means that none of the caterpillars have been killed.

[5] = tested on: larvae of the fall army worm (Spodoptera frugiperda); test: Spodoptera frugiperda test/seed application; format: in vivo; conditions: corn seed treatment
Description: 14 days after sowing the leaves were cut off and infested with larvae of the fall army worm (Spodoptera frugiperda). After the specitied period of time, the mortality in % is determined. 100% means that all the caterpillars have been killed; 0% means that none of the caterpillars have been killed.

[6] = tested on: larvae of the mustard beetle (Phaedon cochleariae); test: Phaedon cochleariae larvae test; format: in vivo; conditions: for mortality at 200 ppm: 200 ppm a.i.
Description: as §1, with “mustard beetle (Phaedon cochleariae)” for “diamondback moth (Plutella xylostella)”, “beetle larvae” for “caterpillars”

Fusarium graminearum = format: in vivo; conditions: 1000 ppm a.i.; 5 days after the inoculation
[7] = Venturia inaequalis, 240 h, read-out: Efficacy in %, found
[8] = Phytophthora infestans, 72 h, read-out: Efficacy in %, found, Table I2
[9] = Phytophthora infestans, 72 h, read-out: Efficacy in %, found, Table I1, 100 ppm a.i.
[10] = Phytophthora infestans, 72 h, read-out: Efficacy in %, found, Table I1
[11] = 24 h, after 1 d, read-out: Mortality in % after 1 d, found
[12] = 48 h, after 2 d, read-out: Mortality in % after 2 d, found
[13] = 72 h, after 3 d, read-out: Mortality in % after 3 d, found
[14] = Alternaria solani, 72 h, read-out: Efficacy in %, found, Table E1, 3 days after the inoculation
[15] = Alternaria solani, 72 h, read-out: Efficacy in %, found, Table E2, 3 days after the inoculation
[16] = 72 h, read-out: Mortality in % after 3 d, found
[17] = 72 h, 4 ppm a.i., after 3 d, read-out: Mortality in % after 3 d, found

Cc1c(F)c(F)c(COC(=O)[C@@H]2[C@H](/C=C(\Cl)C(F)(F)F)C2(C)C)c(F)c1F (racemic) [(3A.43), tefluthrin]
pest or weed control at 100 ppm [1, 7]: 23% | Efficacy in %, found (Septoria tritici; 500 ppm a.i.): 0% | pest or weed control at 200 ppm (Phytophthora infestans; [8]): 0%

CS/C(C)=N\OC(=O)N(C)SN(C)C(=O)O/N=C(\C)SC [(1A.21), thiodicarb]
Efficacy in %, found ([2]; 1000 ppm a.i.): 0% | pest or weed control at 200 ppm (Alternaria solani; Alternaria solani, 72 h): 52%

N#Cc1nn(-c2c(Cl)cc(C(F)(F)F)cc2Cl)c(N)c1[S+]([O-])C(F)(F)F (stereo not shown) [(2B.2), fipronil]
pest or weed control at 200 ppm [1, 7]: 8% | pest or weed control at 100 ppm (Phytophthora infestans; [9]): 30% | pest or weed control at 200 ppm (Phytophthora infestans; [10]): 47% | Efficacy in %, found (Pyrenophora teres; Table J2, 500 ppm a.i.): 0% | pest or weed control at 100 ppm (Alternaria solani; Alternaria solani, 72 h): 28% | pest or weed control at 200 ppm (Alternaria solani; Alternaria solani, 72 h): 44%

Cn1c(=O)c2sc3c(=O)n(C)c(=O)c3sc2c1=O [(I-1), 2,6-dimethyl-1H,5H-[1,4]dithiino[2,3-c:5,6-c′]dipyrrole-1,3,5,7(2H,6H)-tetrone]
pest or weed control at 12.5 ppm [1, 7]: 33% | pest or weed control at 50 ppm [1, 7]: 29% | Efficacy in %, found (Septoria tritici; 500 ppm a.i.): 0% | mortality at 200 ppm ([3]; after 4 h, read-out: Mortality in % after 4 h, found): 0% | mortality at 200 ppm [3, 11]: 0% | mortality at 200 ppm [3, 12]: 0% | mortality at 200 ppm [3, 13]: 0% | Efficacy in %, found ([2]; 500 ppm a.i.): 29% | pest or weed control at 12.5 ppm (Phytophthora infestans; Phytophthora infestans, 72 h, read-out: Efficacy in %, found, Table I1, 12.5 ppm a.i.): 18% | pest or weed control at 50 ppm (Phytophthora infestans; [10]): 43% | pest or weed control at 50 ppm (Phytophthora infestans; [8]): 28% | Efficacy in %, found (Botrytis cinerea; 25 ppm a.i.): 13% | Efficacy in %, found (Botrytis cinerea; 50 ppm a.i.): 48% | mortality at 200 ppm ([4]; Plutella xylostella, 24 h, after 1 d, read-out: Mortality in % after 1 d, found): 0% | mortality at 200 ppm ([4]; Plutella xylostella, 48 h, after 2 d, read-out: Mortality in % after 2 d, found): 0% | Efficacy in %, found (Pyrenophora teres; Table J1, 1000 ppm a.i.): 43% | Efficacy in %, found (Pyrenophora teres; Table J2, 500 ppm a.i.): 43% | Efficacy in % 1 d after infestation, found ([5]; 1 mg a.i./seed): 0% | Efficacy in % 3 d after infestation, found ([5]; 1 mg a.i./seed): 23.8% | mortality at 200 ppm [6, 11]: 0% | mortality at 200 ppm [6, 13]: 0% | Efficacy in %, found (Fusarium graminearum): 50% | pest or weed control at 12.5 ppm (Alternaria solani; [14]): 13% | pest or weed control at 25 ppm (Alternaria solani; [14]): 54% | pest or weed control at 12.5 ppm (Alternaria solani; [15]): 30% | pest or weed control at 25 ppm (Alternaria solani; [15]): 50% | pest or weed control at 50 ppm (Alternaria solani; Alternaria solani, 72 h, read-out: Efficacy in %, found, Table E2, 50 ppm a.i., 3 days after the inoculation): 58%

CC(c1ccc(C(F)(F)F)nc1)S(C)(=O)=NC#N (stereo not shown) [(27.27), sulfoxaflor]
pest or weed control at 100 ppm [1, 7]: 0% | mortality at 0.8 ppm [3, 11]: 20% | Efficacy in %, found (Botrytis cinerea; 200 ppm a.i.): 0% | pest or weed control at 100 ppm (Alternaria solani; Alternaria solani, 72 h): 0% | pest or weed control at 200 ppm (Alternaria solani; Alternaria solani, 72 h): 51%

abamectin [(6.1)]
Efficacy in %, found ([1]; 100 ppm a.i.): 53% | Efficacy in %, found ([1]; 200 ppm a.i.): 51% | Mortality in % after 1 d, found ([4]; 4 ppm a.i., after 1 d): 75% | Efficacy in % 3 d after infestation, found ([5]; 0.25 mg a.i./seed): 4.8% | Efficacy in %, found (Alternaria solani; Table E2, 100 ppm a.i., 3 days after the inoculation): 32%

O=C1C=C(N(Cc2ccc(Cl)nc2)CC(F)F)CO1 [(27.16), 4-{[(6-chloropyridin-3-yl)methyl](2,2-difluoroethyl)amino}furan-2(5H)-one]
pest or weed control at 200 ppm [1, 7]: 8% | Efficacy in %, found (Septoria tritici; 1000 ppm a.i.): 0% | pest or weed control at 200 ppm (Phytophthora infestans; [8]): 30%

CNC(=O)c1cc(Cl)cc(C)c1NC(=O)c1cc(Br)nn1-c1ncccc1Cl [(26.1), chloranthraniliprole (rynaxypyr)]
pest or weed control at 100 ppm [1, 7]: 0% | mortality at 0.8 ppm [3, 12]: 40% | pest or weed control at 100 ppm (Phytophthora infestans; [9]): 32% | Efficacy in %, found (Botrytis cinerea; 100 ppm a.i.): 0% | Efficacy in %, found (Botrytis cinerea; 200 ppm a.i.): 0% | mortality at 4 ppm ([4]; Plutella xylostella, 24 h, 4 ppm a.i., after 1 d, read-out: Mortality in % after 1 d, found): 25% | Efficacy in %, found (Pyrenophora teres; Table J2, 500 ppm a.i.): 14% | pest or weed control at 100 ppm (Alternaria solani; Alternaria solani, 72 h): 37% | pest or weed control at 200 ppm (Alternaria solani; Alternaria solani, 72 h): 37%

CNC(=O)Oc1cc(C)c(SC)c(C)c1 [(1A.15), methiocarb]
pest or weed control at 100 ppm [1, 7]: 4% | pest or weed control at 100 ppm (Phytophthora infestans; Phytophthora infestans, 72 h, read-out: Efficacy in %, found, Table I2, 100 ppm a.i.): 16% | mortality at 20 ppm [6, 16]: 35% | pest or weed control at 100 ppm (Alternaria solani; Alternaria solani, 72 h): 45% | pest or weed control at 200 ppm (Alternaria solani; Alternaria solani, 72 h): 47%

spinosad [(5.2)]
Efficacy in %, found (Phytophthora infestans; Table I2, 100 ppm a.i.): 10% | Mortality in % after 1 d, found ([4]; 4 ppm a.i., after 1 d): 70% | Efficacy in %, found (Pyrenophora teres; Table J1, 1000 ppm a.i.): 0%

CN1COCN(Cc2cnc(Cl)s2)/C1=N\[N+](=O)[O-] [(4A.7), thiamethoxam]
pest or weed control at 100 ppm [1, 7]: 18% | pest or weed control at 200 ppm [1, 7]: 25% | pest or weed control at 100 ppm (Phytophthora infestans; [9]): 30% | Efficacy in %, found (Botrytis cinerea; 100 ppm a.i.): 0% | Efficacy in %, found (Pyrenophora teres; Table J1, 1000 ppm a.i.): 0% | pest or weed control at 200 ppm (Alternaria solani; Alternaria solani, 72 h, Table E1, 200 ppm a.i., 3 days after the inoculation): 64%

CC1(C)C(C=C(Cl)Cl)C1C(=O)OC(C#N)c1ccc(F)c(Oc2ccccc2)c1 (stereo not shown) [(3A.10), cyfluthrin]
Efficacy in %, found (Pyrenophora teres; Table J2, 500 ppm a.i.): 0%

O=[N+]([O-])NC1=NCCN1Cc1ccc(Cl)nc1 [(4A.4), imidacloprid]
Efficacy in % 1 d after infestation, found ([5]; 0.25 mg a.i./seed): 0% | mortality at 20 ppm ([6]; 24 h, 20 ppm a.i., after 1 d, read-out: Mortality in % after 1 d, found): 0% | Efficacy in %, found (Fusarium graminearum): 0% | pest or weed control at 100 ppm (Alternaria solani; Alternaria solani, 72 h): 13% | pest or weed control at 200 ppm (Alternaria solani; Alternaria solani, 72 h): 30%

CC1(C)[C@H](C=C(Cl)Cl)[C@H]1C(=O)OCc1c(F)c(F)cc(F)c1F [(3A.46), transfluthrin]
mortality at 4 ppm [3, 17]: 0%

CN/C(=N\[N+](=O)[O-])NCc1cnc(Cl)s1 [(4A.2), clothianidin]
pest or weed control at 100 ppm [1, 7]: 0% | pest or weed control at 200 ppm [1, 7]: 0% | pest or weed control at 100 ppm (Phytophthora infestans; [9]): 30% | Efficacy in %, found (Pyrenophora teres; Table J2, 500 ppm a.i.): 0% | mortality at 4 ppm [6, 17]: 0% | pest or weed control at 100 ppm (Alternaria solani; Alternaria solani, 72 h): 49% | pest or weed control at 200 ppm (Alternaria solani; Alternaria solani, 72 h): 45%

C/C(=N\C#N)N(C)Cc1ccc(Cl)nc1 [(4A.1), acetamiprid]
mortality at 4 ppm ([3]; 24 h, read-out: Mortality in % after 1 d, found): 10% | pest or weed control at 200 ppm (Phytophthora infestans; [10]): 27% | Efficacy in %, found (Botrytis cinerea; 100 ppm a.i.): 0% | mortality at 4 ppm [6, 16]: 0%

CC1(C)C(C=C(Cl)Cl)C1C(=O)OC(C#N)c1ccc(F)c(Oc2ccccc2)c1 (stereo not drawn) [(3A.11), β-cyfluthrin]
Mortality in % after 2 d, found ([4]; 4 ppm a.i., after 2 d): 40%

CNC(=O)c1cc(C#N)cc(C)c1NC(=O)c1cc(Br)nn1-c1ncccc1Cl [(26.2), cyantraniliprole (cyazypyr)]
pest or weed control at 100 ppm [1, 7]: 0% | pest or weed control at 200 ppm [1, 7]: 18% | mortality at 4 ppm ([3]; 48 h, 4 ppm a.i., after 2 d, read-out: Mortality in % after 2 d, found): 50% | pest or weed control at 100 ppm (Phytophthora infestans; [9]): 30% | Efficacy in %, found (Botrytis cinerea; 100 ppm a.i.): 0% | Efficacy in %, found (Botrytis cinerea; 200 ppm a.i.): 0% | mortality at 0.8 ppm ([6]; 72 h, 0.8 ppm a.i., after 3 d, read-out: Mortality in % after 3 d, found): 25% | pest or weed control at 100 ppm (Alternaria solani; Alternaria solani, 72 h): 28%

N#C/N=C1\SCCN1Cc1ccc(Cl)nc1 [(4A.6), thiacloprid]
pest or weed control at 200 ppm [1, 7]: 4% | mortality at 4 ppm ([3]; 4 ppm a.i., after 4 h, read-out: Mortality in % after 4 h, found): 20% | Efficacy in %, found ([2]; 1000 ppm a.i.): 0% | pest or weed control at 100 ppm (Phytophthora infestans; [9]): 16% | pest or weed control at 100 ppm (Alternaria solani; Alternaria solani, 72 h): 13%
